Tests used:
[1] = Skin whitening effect when applied to UVB-tanned human skin; format: in vivo; conditions: 1% applied on upper arm after UVB, 10 weeks, 12 male subjects
Method: First, opaque tapes having holes of 1.5 cm in diameter were attached on the upper arms of 12 healthy male subjects and UVB of about 1.5-2 times the minimal erythemal dose was irradiated to each subject to induce skin tanning. […] Then, the change was monitored for 10 weeks. The color of the skin was measured with 1-week interval using the CR2002 colorimeter (Minolta, Japan). The change in skin color (ΔL*) between the time when the test substance was applied and the time when the test was completed was calculated according to Equation 3. Skin whitening effect is evaluated by comparing the ΔL* of the part where the test substance was applied with that of the control part. A ΔL* value of about 2 can be interpreted as distinct skin whitening effect and one about 1.5 can be evaluated as positive skin whitening effect.
ΔL*=(L* when test was completed)−(L* when test substance was applied) [Equation 3]

[2] = system: Melanocytes (Mel-Ab cells); experiment: Melanin production inhibiting effect in mouse melanocytes; format: cell-based; conditions: Mus musculus, Mel-Ab; read-out: Melanin production inhibiting rate (%)
Method: The melanin production inhibiting effect of the syringaresinol obtained in Example was evaluated using mouse melanocytes. First, melanocytes (Mel-Ab cells) derived from C57BL/6 (treated with Dooley et al.'s method) were cultured under the condition of 37° C. and 5% CO2 in Dulbecco's modified Eagle's medium (DMEM) containing 10% fetal bovine serum, 100 nM 12-O-tetradecanoylphorbol-13-acetate and 1 nM cholera toxin. […] After removing the culture medium and washing with PBS, the cells were dissolved with 1 N sodium hydroxide and absorbance was measured at 400 nm. Melanin production inhibiting rate (%) was calculated according to Equation 2 from the measured absorbance. Melanin production inhibiting rate (%)=100−(Absorbance of test substance) /(Absorbance of control substance)×100 [Equation 2]

[3] = system: mushroom-derived tyrosinase; experiment: Tyrosinase activity inhibiting effect (dopachrome formation); format: biochemical; conditions: 10 ppm, 37° C. 10 minutes
Method: The reaction solution was prepared by adding 500 μL of 0.1 M PBS, 15 μg of L-tyrosine and 50 μL of syringaresinol and then adding distilled water to make the final volume 1500 μL. A solution prepared through the same procedure but with Kojic acid instead of syringaresinol was used as a positive control. The concentration of all the samples used in experiment was set to 10 ppm. After adding 10 units of mushroom-derived tyrosinase to the reaction solution, followed by reaction at 37° C. for 10 minutes, the reaction was stopped by quickly transferring onto ice for 5 minutes. The synthesis rate of dopachrome produced was determined by measuring absorbance at 475 nm and tyrosinase activity inhibiting rate (%) was calculated therefrom.

[4] = Skin whitening effect when orally administered, UV-irradiated brown guinea pig; format: in vivo; conditions: 1% in feed, 5 weeks, oral
Method: Minimal erythemal dose was measured after irradiating UV to guinea pigs. After grouping the guinea pigs with 10 per each group, UV of the minimal erythemal dose was irradiated once a day, for a total of 3 times. The guinea pigs were allowed free access to feed for 5 weeks. The feed contained 1% syringaresinol or 1% vitamin C (Vit C) as a positive control. Skin pigmentation was measure using a colorimeter in substantially the same manner as in Test Example 6.

## Oc1ccc(O)cc1 [Hydroquinone, hydroquinone, reference compound]
[1]
  Change in skin brightness (ΔL*): 1.71 ± 0.31
[2]
  inhibition at 10 ppm: 58.9%

## O=c1cc(CO)occ1O [Kojic acid, reference compound]
[3]
  Tyrosinase activity inhibiting rate (%): 67.8%

## O=C1O[C@H]([C@@H](O)CO)C(O)=C1O [Vitamin C, vitamin C, reference compound]
[4]
  Skin color brightness (ΔL*): 1.48 ± 0.71
